test system: KLK2, KLK3, and KLK14; assay: Streptavidin blotting of LNCaP-K14 conditioned media after treatment with biotinylated ABPs; format: biochemical, human; settings: CM of LNCaP-K14 cells, 10 nM DHT and 200 nM Dox; 1 h; concentration-dependent labeling
Description: With ABPs for KLK2, KLK3, and KLK14 in hand, we next addressed selective readouts of KLK activities in a complex biological system. Compounds 20, 31, and 39 were incubated with CM obtained from LNCaP-K14 cells, in which KLK14 expression has been placed under the control of a doxycycline-inducible promoter, stimulated with 10 nM DHT and 200 nM doxycycline (Dox).[15] […] In line with previous reports KLK14 appears as a double band due to protein glycosylation.[15],[39] Selective covalent modification of KLK2, KLK3, and KLK14 by 31, 20, and 39, respectively, was confirmed by streptavidin enrichment and immunoblotting (Figures S19 and S20). In the following experiments, biotinylated ABPs (bABPs) 31, 20, and 39 are named KLK2_bABP, KLK3_bABP, and KLK14_bABP, respectively.
FBS) were seeded onto the bone matrix. As a control the same number of LNCaP cells were seeded in a T175 plate lacking osteoblast cells. After 12 h, the media was aspirated, and the co-culture was incubated with serum-free RPMI media (0 % FBS and phenol red-free) for a further 48 h. After 48 h the media was collected, passed through a 0.2 μm syringe filter and stored at – 80 °C until needed. Indirect Co-culture – After 6 weeks, the media was aspirated, and the differentiated osteoblasts were incubated with serum-free RPMI media (0 % FBS and phenol red-free) for a further 48 h. After 48 h the media was collected, passed through a 0.2 μm syringe filter and then added to a T175 plate of LNCaP cells grown to 80 % confluency and hormone starved for 24 h in RPMI media supplemented with 5 % charcoal stripped FBS. […]
The protein concentration of the homogenate was measured using the DC Protein Assay (BioRad), following the manufacturer’s instructions. […]
Preparation of conditioned media: Samples of conditioned media were removed from – 80 °C storage and concentrated by centrifugation (3000 g, 10 °C) in a 3 KDa molecular weight cut-off spin filter (Amicon) for approximately 3 h. […] The protein concentration of the media was measured using the DC Protein Assay (BioRad), following the manufacturer’s instructions. […]

SMILES	targets labeled (probe selectivity)
CCC[C@H](NC(=O)[C@H](CCC(N)=O)NC(=O)[C@H](CC(N)=O)NC(=O)CCCCCNC(=O)CCCC[C@@H]1SC[C@@H]2NC(=O)N[C@@H]21)C(=O)NC(c1ccc(C(N)=O)cc1)P(=O)(Oc1ccccc1)Oc1ccccc1 (stereo partly drawn) [compound 20]	single target
CC(C)(C)C(NC(=O)CCCCCNC(=O)CCCCC1SCC2NC(=O)NC21)C(=O)NC(CCN)C(=O)NC(Cc1ccc(O)cc1)C(=O)NC(c1ccc(NC(=N)N)cc1)P(=O)(Oc1ccccc1)Oc1ccccc1 (stereo not drawn) [compound 31, Tle-Dab-Tyr-Arg]	single target
CCC(NC(=O)C(CCN)NC(=O)C(Cc1ccc2ccccc2c1)NC(=O)CCCCCNC(=O)CCCCC1SCC2NC(=O)NC21)C(=O)NC(c1ccc(NC(=N)N)cc1)P(=O)(Oc1ccccc1)Oc1ccccc1 (stereo not drawn) [compound 39, 2Nal-Dab-Abu-Arg]	single target

Source: PMC9282638, “A Suite of Activity-Based Probes To Dissect the KLK Activome in Drug-Resistant Prostate Cancer” (Journal of the American Chemical Society, 2021)
